In ChEMBL document CHEMBL3751809, “Symmetric 4,4'-(piperidin-4-ylidenemethylene)bisphenol derivatives as novel tunable estrogen receptor (ER) modulators” (Bioorg Med Chem, 2016):
Calls of active or inactive are those of the source. The calls are words filed in the database; no cut-off is given here.

How the values were obtained:
[1] = biological target: T1, Estrogen receptor (Homo sapiens) (UniProt P03372); test: Displacement of [6,7-3H]17beta-estradiol from recombinant human ERalpha ligand binding domain at 0.4 to 4 uM incubated for 16 hrs by scintillation counting analysis
T1 sequence (whole entry): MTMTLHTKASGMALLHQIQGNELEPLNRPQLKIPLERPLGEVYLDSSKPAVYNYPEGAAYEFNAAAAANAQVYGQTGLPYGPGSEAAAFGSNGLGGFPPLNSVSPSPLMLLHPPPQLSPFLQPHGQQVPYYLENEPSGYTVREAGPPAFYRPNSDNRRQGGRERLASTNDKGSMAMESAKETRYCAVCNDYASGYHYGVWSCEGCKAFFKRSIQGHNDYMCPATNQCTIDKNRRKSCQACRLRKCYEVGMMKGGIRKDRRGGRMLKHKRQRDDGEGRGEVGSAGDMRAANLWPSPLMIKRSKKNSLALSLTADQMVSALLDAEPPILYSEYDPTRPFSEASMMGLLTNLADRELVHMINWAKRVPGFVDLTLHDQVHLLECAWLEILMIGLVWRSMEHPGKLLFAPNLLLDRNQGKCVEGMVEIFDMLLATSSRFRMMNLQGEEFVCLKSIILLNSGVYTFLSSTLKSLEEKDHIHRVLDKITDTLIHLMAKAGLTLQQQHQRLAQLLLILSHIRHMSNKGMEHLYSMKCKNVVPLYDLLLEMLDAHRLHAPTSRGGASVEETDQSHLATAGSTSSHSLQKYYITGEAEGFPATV

[2] = biological target: T1, Estrogen receptor (Homo sapiens); test: Antagonist activity at ERalpha in human MCF7 cells assessed as inhibition of 17beta-estradiol-mediated cell proliferation incubated for 5 days by WST-8 assay; format: cell-based
[3] = biological target: T1, Estrogen receptor (Homo sapiens); test: Agonist activity at ERalpha in human MCF7 cells assessed as induction of cell proliferation incubated for 5 days by WST-8 assay; format: cell-based
[4] = biological target: T1, Estrogen receptor (Homo sapiens); test: Displacement of [6,7-3H]17beta-estradiol from recombinant human ERalpha ligand binding domain incubated for 16 hrs by scintillation counting analysis

inhibition [1]	Compound	also measured
inactive	CN1CCC(=C(c2ccc(O)cc2)c2ccc(O)cc2)CC1	
Active	CC(=O)N1C(C)(C)CC(=C(c2ccc(O)cc2)c2ccc(O)cc2)CC1(C)C	inhibition [2]: inactive; Activity [3]: Dose-dependent effect
Active	CC1(C)CC(=C(c2ccc(O)cc2)c2ccc(O)cc2)CC(C)(C)N1	
	CCOC(=O)N1CCC(=C(c2ccc(O)cc2)c2ccc(O)cc2)CC1	inhibition [4]: Dose-dependent effect
inactive	CC(=O)N1CCC(=C(c2ccc(O)cc2)c2ccc(O)cc2)CC1	
inactive	Oc1ccc(C(=C2CCNCC2)c2ccc(O)cc2)cc1	
